Reference: patent publication US20030008012A1, “Composition for rectal delivery of an oxazolidinone antibacterial drug” (priority 2001, published 2003)

Assay: Linezolid concentration in blood plasma of beagle dogs after rectal administration of one suppository
Assay type: in vivo
Conditions: dog, other: rectal
Method: One 20 mg linezolid suppository prepared as above was rectally administered to each of four beagle dogs, and the concentration of linezolid in blood plasma of the dogs was determined at different times after administration, as presented in Table 2.
One 600 mg linezolid suppository prepared as above was rectally administered to each of four beagle dogs and the concentration of linezolid in blood plasma of the dogs was determined at different times after administration, as presented in Table 3.

[1] = 20 mg, Example 2 solution suppository, 20 mg linezolid, Dog 1 (15.2 kg)
[2] = 20 mg, Example 2 solution suppository, 20 mg linezolid, Dog 2 (13.7 kg)
[3] = 20 mg, Example 2 solution suppository, 20 mg linezolid, Dog 3 (10.5 kg)
[4] = 20 mg, Example 2 solution suppository, 20 mg linezolid, Dog 4 (12.2 kg)
[5] = 600 mg, Example 5 particulate dispersion suppository, 600 mg linezolid, Dog 1 (15.0 kg)
[6] = 600 mg, Example 5 particulate dispersion suppository, 600 mg linezolid, Dog 2 (13.4 g)
[7] = 600 mg, Example 5 particulate dispersion suppository, 600 mg linezolid, Dog 3 (10.1 kg)
[8] = 600 mg, Example 5 particulate dispersion suppository, 600 mg linezolid, Dog 4 (12.5 kg)

## CC(=O)NC[C@H]1CN(c2ccc(N3CCOCC3)c(F)c2)C(=O)O1 [Linezolid, (S)-N-[[3-[3-fluoro-4-(4-morpholinyl)phenyl]-2-oxo-5-oxazolidinyl]methyl]acetamide]
[1]
  concentration at 0.25 h: 47.6 ng/mL
  concentration at 0.5 h: 132 ng/mL
  concentration at 0.75 h: 168 ng/mL
  concentration at 1 h: 209 ng/mL
  concentration at 1.5 h: 267 ng/mL
  concentration at 2 h: 354 ng/mL
  concentration at 2.5 h: 417 ng/mL
  concentration at 3 h: 364 ng/mL
[2]
  concentration at 0.25 h: 54.6 ng/mL
  concentration at 0.5 h: 136 ng/mL
  concentration at 0.75 h: 189 ng/mL
  concentration at 1 h: 197 ng/mL
  concentration at 1.5 h: 179 ng/mL
  concentration at 2 h: 238 ng/mL
  concentration at 2.5 h: 171 ng/mL
  concentration at 3 h: 146 ng/mL
[3]
  concentration at 0.25 h: 134 ng/mL
  concentration at 0.5 h: 305 ng/mL
  concentration at 0.75 h: 340 ng/mL
  concentration at 1 h: 388 ng/mL
  concentration at 1.5 h: 423 ng/mL
  concentration at 2 h: 351 ng/mL
  concentration at 2.5 h: 331 ng/mL
  concentration at 3 h: 317 ng/mL
[4]
  concentration at 0.25 h: 80.7 ng/mL
  concentration at 0.5 h: 204 ng/mL
  concentration at 0.75 h: 291 ng/mL
  concentration at 1 h: 394 ng/mL
  concentration at 1.5 h: 532 ng/mL
  concentration at 2 h: 548 ng/mL
  concentration at 2.5 h: 550 ng/mL
  concentration at 3 h: 556 ng/mL
[5]
  concentration at 0.25 h: 1110 ng/mL
  concentration at 0.5 h: 2250 ng/mL
  concentration at 0.75 h: 3840 ng/mL
  concentration at 1 h: 5010 ng/mL
  concentration at 1.5 h: 6260 ng/mL
  concentration at 2 h: 7230 ng/mL
  concentration at 2.5 h: 7980 ng/mL
  concentration at 3 h: 8480 ng/mL
[6]
  concentration at 0.25 h: 770 ng/mL
  concentration at 0.5 h: 1240 ng/mL
  concentration at 0.75 h: 1940 ng/mL
  concentration at 1 h: 2610 ng/mL
  concentration at 1.5 h: 3490 ng/mL
  concentration at 2 h: 3570 ng/mL
  concentration at 2.5 h: 5010 ng/mL
  concentration at 3 h: 4730 ng/mL
[7]
  concentration at 0.25 h: 444 ng/mL
  concentration at 0.5 h: 1110 ng/mL
  concentration at 0.75 h: 1680 ng/mL
  concentration at 1 h: 2540 ng/mL
  concentration at 1.5 h: 3460 ng/mL
  concentration at 2 h: 4840 ng/mL
  concentration at 2.5 h: 5510 ng/mL
  concentration at 3 h: 6570 ng/mL
[8]
  concentration at 0.25 h: 1100 ng/mL
  concentration at 0.5 h: 1720 ng/mL
  concentration at 0.75 h: 1930 ng/mL
  concentration at 1 h: 2640 ng/mL
  concentration at 1.5 h: 4260 ng/mL
  concentration at 2 h: 4810 ng/mL
  concentration at 2.5 h: 6060 ng/mL
  concentration at 3 h: 7480 ng/mL
